Experimental data taken from US20260083865A1, “PROSTATE SPECIFIC MEMBRANE ANTIGEN (PSMA) LIGANDS AND USE THEREOF” (priority 2022, published 2026).
Read-outs that look alike come from different tables or passages of the source. Numbered stars: 1 amine (or outer) side, 2 acyl side, 3 side chain; on linkers, the order of the positions; unused ones are H or OH. Bridge positions count the residues as written; N and C are the ends. Square brackets hold non-standard residues; d marks the D form. Peptide text beside a SMILES is read from it. * marks the point of attachment. TtdsdLys(DOTA)NH2 = NC(=O)[C@@H](CCCCNC(=O)CN1CCN(CC(=O)O)CCN(CC(=O)O)CCN(CC(=O)O)CC1)NC(=O)CCC(=O)NCCCOCCOCCOCCCN*; DO3AM = NC(=O)CN1CCN(CC(N)=O)CCN(CC(=O)*)CCN(CC(N)=O)CC1; DOTA = O=C(O)CN1CCN(CC(=O)O)CCN(CC(=O)*)CCN(CC(=O)O)CC1; Phe(3-CF3) = N[C@@H](Cc1cccc(C(F)(F)F)c1)C(=O)O; Phe(4-Cl) = N[C@@H](Cc1ccc(Cl)cc1)C(=O)O; Arg(Me) = CNC(=N)NCCC[C@H](N)C(=O)O; X1 = O=C(CC1CCN([*:1])CC1)[*:2]; Lys(Me) = CNCCCC[C@H](N)C(=O)O; Tle = CC(C)(C)[C@H](N)C(=O)O; 4Amb = NCc1ccc(C(=O)O)cc1; Aib = CC(C)(N)C(=O)O

Legend:
[1] = molecular target: T1, PSMA-expressing C4-2 cells (Homo sapiens, UniProt Q04609); experiment: FACS binding assay (competition with 50 nM PSM-0183); details: C4-2 cells, read-out: pIC50 [C4-2] CAT (converted)
T1 construct: PSMA-expressing C4-2 cells (ATCC, Cat. No. CRL-3314) were cultured in RPMI-1640; host or cells: C4-2 cells
Method in brief: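 C4-2 cells were incubated 1 h at 4 °C with 50 nM AF488-labelled peptide PSM-0183 plus increasing test compound concentrations, then washed twice in ice-cold buffer. Median fluorescence in the AF488 channel was read by flow cytometry. IC50/pIC50 was derived by 4PL fitting of MFI versus concentration.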

[2] = molecular target: T2, Fc-fusion protein of human PSMA (hPSMA-Fc) (Homo sapiens, UniProt Q04609); experiment: Surface plasmon resonance assay (Biacore T200, single cycle kinetic); format: binding; details: read-out: pKD CAT (converted)
T2 construct: purchased Acro Biosystems PSA-H5264
Method in brief: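 hPSMA-Fc was captured (~1000 RU) on an Fc-binding-peptide CM5 chip, and compounds were run in single cycle kinetic mode at 25° C in HBST with 0.1% DMSO. Double-blank-corrected sensorgrams were fitted to a 1:1 Langmuir model to give KD, reported as pKD.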

[3] = FACS binding, competition with 50 nM PSM-0183, category
[4] = SPR, hPSMA-Fc, single cycle kinetic, 25° C., category
[5] = pKD category for PSMA SPR activity assay, hPSMA-Fc, 25° C.

T1 sequence (Q04609 whole entry): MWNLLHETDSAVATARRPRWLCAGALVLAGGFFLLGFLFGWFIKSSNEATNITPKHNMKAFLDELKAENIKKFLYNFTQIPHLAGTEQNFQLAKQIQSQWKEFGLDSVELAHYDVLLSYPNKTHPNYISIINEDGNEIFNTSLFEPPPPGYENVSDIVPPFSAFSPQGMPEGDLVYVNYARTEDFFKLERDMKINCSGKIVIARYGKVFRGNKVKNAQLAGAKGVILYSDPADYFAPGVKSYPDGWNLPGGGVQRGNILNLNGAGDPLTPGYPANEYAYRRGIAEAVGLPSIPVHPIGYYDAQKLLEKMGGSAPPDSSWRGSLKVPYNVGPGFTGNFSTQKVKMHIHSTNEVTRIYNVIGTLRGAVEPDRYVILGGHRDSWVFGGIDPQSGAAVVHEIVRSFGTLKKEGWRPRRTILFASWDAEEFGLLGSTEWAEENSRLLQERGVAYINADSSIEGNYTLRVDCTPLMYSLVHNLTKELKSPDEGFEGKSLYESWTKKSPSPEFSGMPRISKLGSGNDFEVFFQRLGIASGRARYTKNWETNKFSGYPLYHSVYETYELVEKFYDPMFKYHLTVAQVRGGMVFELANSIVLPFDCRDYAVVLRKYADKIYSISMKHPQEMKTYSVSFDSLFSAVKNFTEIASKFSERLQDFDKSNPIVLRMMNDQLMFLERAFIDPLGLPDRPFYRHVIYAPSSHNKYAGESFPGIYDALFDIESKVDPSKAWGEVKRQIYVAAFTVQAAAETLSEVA
T2 sequence (Q04609 44-750 limits assumed): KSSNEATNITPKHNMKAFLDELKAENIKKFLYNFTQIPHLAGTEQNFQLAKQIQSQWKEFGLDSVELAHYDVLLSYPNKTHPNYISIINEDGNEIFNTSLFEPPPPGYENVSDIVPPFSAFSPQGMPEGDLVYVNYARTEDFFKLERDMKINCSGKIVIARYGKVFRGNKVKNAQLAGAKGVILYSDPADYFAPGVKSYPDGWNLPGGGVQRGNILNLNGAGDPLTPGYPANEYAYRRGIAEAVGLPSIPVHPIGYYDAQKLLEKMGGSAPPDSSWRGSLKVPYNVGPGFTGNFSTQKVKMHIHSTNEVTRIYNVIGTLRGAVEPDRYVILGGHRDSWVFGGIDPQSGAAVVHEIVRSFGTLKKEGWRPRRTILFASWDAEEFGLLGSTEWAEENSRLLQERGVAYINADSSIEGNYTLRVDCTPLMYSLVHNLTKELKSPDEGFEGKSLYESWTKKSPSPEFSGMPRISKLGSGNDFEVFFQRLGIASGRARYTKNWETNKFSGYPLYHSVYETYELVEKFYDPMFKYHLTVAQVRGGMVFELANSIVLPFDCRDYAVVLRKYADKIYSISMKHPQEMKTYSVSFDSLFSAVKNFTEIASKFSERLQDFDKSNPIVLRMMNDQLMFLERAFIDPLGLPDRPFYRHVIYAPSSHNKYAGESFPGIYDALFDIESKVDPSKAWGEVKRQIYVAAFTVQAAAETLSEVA

## CC(=O)N[C@H](C(=O)NC(C)(C)C(=O)N[C@@H](Cc1ccccc1)C(=O)N[C@H]1CSSC[C@@H](C(=O)N[C@H](C(=O)N[C@H](C(=O)N[C@@H](CC(=O)O)C(N)=O)[C@@H](C)O)C(C)(C)C)NC(=O)[C@H](CC(N)=O)NC(=O)C(C)(C)NC(=O)[C@H](CCC(=O)O)NC(=O)[C@H](CCCCN)NC1=O)[C@@H](C)O [PSM-0253, Ac-Thr-Aib-Phe-[Cys-Lys-Glu-Aib-Asn-Cys]-Tle-Thr-Asp-NH2] (Ac-T[Aib]FCKE[Aib]NC[Tle]TD-NH2; disulfide 4-9)
[1]; [3]
  IC50: 200 to 1260 nM
[2]; [4]
  Kd: 126 to 501 nM

## CNCCCC[C@@H]1NC(=O)[C@@H](NC(=O)[C@H](Cc2cccc(C(F)(F)F)c2)NC(=O)C(C)(C)NC(=O)[C@@H](NC(=O)CC2CCN(C(=O)CN3CCN(CC(=O)O)CCN(CC(=O)O)CCN(CC(=O)O)CC3)CC2)[C@@H](C)O)CSSC[C@@H](C(=O)N[C@H](C(N)=O)C(C)(C)C)NC(=O)[C@H](CC(N)=O)NC(=O)C(C)(C)NC(=O)[C@H](CCCNC(=N)NC)NC1=O [PSM-0396, DOTA-Cmp-Thr-Aib-Mtf-[Cys-Lys(Me)-Arg(Me)-Aib-Asn-Cys]-Tle-NH2] ({DOTA}-[X1]T[Aib][Phe(3-CF3)]C[Lys(Me)][Arg(Me)][Aib]NC[Tle]-NH2; disulfide 5-10)
[1]; pIC50 category of FACS binding
  IC50: < 200 nM
[2]; [5]
  Kd: < 12.6 nM

## CC(=O)N[C@H](C(=O)NC(C)(C)C(=O)N[C@@H](Cc1ccccc1)C(=O)N[C@H]1CSSC[C@@H](C(=O)N[C@H](C(=O)N[C@H](C(=O)N[C@@H](CC(=O)O)C(N)=O)[C@@H](C)O)C(C)(C)C)NC(=O)[C@H](CC(N)=O)NC(=O)[C@H](CCCCNC(=O)CN2CCN(CC(=O)O)CCN(CC(=O)O)CCN(CC(=O)O)CC2)NC(=O)[C@H](CCCNC(=N)N)NC(=O)[C@H](CCCCN)NC1=O)[C@@H](C)O [PSM-0397, Ac-Thr-Aib-Phe-[Cys-Lys-Arg-Lys(DOTA)-Asn-Cys]-Tle-Thr-Asp-NH2] (Ac-T[Aib]FCKRK(DOTA)NC[Tle]TD-NH2; disulfide 4-9)
[1]; pIC50 category of FACS binding
  IC50: < 200 nM
[2]; [5]
  Kd: 12.6 to 126 nM

## CNCCCC[C@@H]1NC(=O)[C@@H](NC(=O)[C@H](Cc2ccc(Cl)cc2)NC(=O)C(C)(C)NC(=O)[C@@H](NC(=O)CC2CCN(C(=O)CN3CCN(CC(N)=O)CCN(CC(N)=O)CCN(CC(N)=O)CC3)CC2)[C@@H](C)O)CSSC[C@@H](C(=O)N[C@H](C(=O)N[C@H](C(N)=O)[C@@H](C)O)C(C)(C)C)NC(=O)[C@H](CC(N)=O)NC(=O)C(C)(C)NC(=O)[C@H](CCCNC(=N)NC)NC1=O [PSM-0593, DOTAM-Cmp-Thr-Aib-Pcf-[Cys-Lys(Me)-Arg(Me)-Aib-Asn-Cys]-Tle-Thr-NH2] (DO3AM-[X1]T[Aib][Phe(4-Cl)]C[Lys(Me)][Arg(Me)][Aib]NC[Tle]T-NH2; disulfide 5-10)
[1]; FACS binding, category
  IC50: < 200 nM
[2]; PSMA SPR assay, category
  Kd: < 12.6 nM

## CC(C)(NC(=O)c1ccc(CNC(=O)CN2CCN(CC(=O)O)CCN(CC(=O)O)CCN(CC(=O)O)CC2)cc1)C(=O)N[C@@H](Cc1ccc(Cl)cc1)C(=O)N[C@H]1CSSC[C@@H](C(=O)N[C@H](C(N)=O)C(C)(C)C)NC(=O)[C@H](CC(N)=O)NC(=O)C(C)(C)NC(=O)[C@H](CCCNC(=N)N)NC(=O)[C@H](CCCCN)NC1=O [PSM-0381, DOTA-Pamb-Aib-Pcf-[Cys-Lys-Arg-Aib-Asn-Cys]-Tle-NH2] ({DOTA-4Amb}-[Aib][Phe(4-Cl)]CKR[Aib]NC[Tle]-NH2; disulfide 3-8)
[1]; pIC50 category of FACS binding
  IC50: < 200 nM
[2]; [5]
  Kd: < 12.6 nM

## CC(=O)N[C@H](C(=O)NC(C)(C)C(=O)N[C@@H](Cc1ccccc1)C(=O)N[C@H]1CSSC[C@@H](C(=O)N[C@H](C(=O)N[C@H](C(=O)NCCCOCCOCCOCCCNC(=O)CCC(=O)N[C@H](CCCCNC(=O)CN2CCN(CC(=O)O)CCN(CC(=O)O)CCN(CC(=O)O)CC2)C(N)=O)[C@@H](C)O)C(C)(C)C)NC(=O)[C@H](CC(N)=O)NC(=O)[C@H](C)NC(=O)[C@H](CCCNC(=N)N)NC(=O)[C@H](CCCCN)NC1=O)[C@@H](C)O [PSM-0231, Ac-Thr-Aib-Phe-[Cys-Lys-Arg-Ala-Asn-Cys]-Tle-Thr-Ttds-lys(DOTA)-NH2] (Ac-T[Aib]FCKRANC[Tle]T-{TtdsdLys(DOTA)NH2}; disulfide 4-9)
[1]; [3]
  IC50: < 200 nM
[2]; [4]
  Kd: < 12.6 nM

## CC(=O)NC(C)(C)C(=O)N[C@@H](Cc1ccc(Cl)cc1)C(=O)N[C@H]1CSSC[C@@H](C(N)=O)NC(=O)[C@H](CC(N)=O)NC(=O)C(C)(C)NC(=O)[C@H](CCCNC(=N)N)NC(=O)[C@H](CCCCN)NC1=O [PSM-0443, Ac-Aib-Pcf-[Cys-Lys-Arg-Aib-Asn-Cys]-NH2] (Ac-[Aib][Phe(4-Cl)]CKR[Aib]NC-NH2; disulfide 3-8)
[1]; pIC50 category of FACS binding
  IC50: 200 to 1260 nM
[2]; [5]
  Kd: > 501 nM
